Measured values reported in ChEMBL document CHEMBL4251615, “Discovery of anilino-furo[2,3-d]pyrimidine derivatives as dual inhibitors of EGFR/HER2 tyrosine kinase and their anticancer activity” (Eur J Med Chem, 2018).

How the values were obtained:
COLO 205 = test: Growth inhibition of human COLO205 cells assessed as cell growth at 10 uM incubated for 48 hrs by sulforhodamine B assay relative to control; format: functional; details: COLO 205, 48 h, read-out: Activity
OVCAR-8 = test: Growth inhibition of human OVCAR8 cells assessed as cell growth at 10 uM incubated for 48 hrs by sulforhodamine B assay relative to control; format: functional; details: OVCAR-8, 48 h, read-out: Activity
[1] = biological target: Epidermal growth factor receptor (Homo sapiens, UniProt P00533); test: Inhibition of recombinant human C-terminal His/N-terminal GST-tagged EGFR (668 to 1210 residues) expressed in baculovirus infected Sf9 cells at 10 uM using biotin-labeled poly[Glu:Tyr] (4:1) as substrate after 30 mins by Kinase-Glo plus luminescence assay relative to control
Sequence of Epidermal growth factor receptor (P00533 whole entry, the tested form may be a part): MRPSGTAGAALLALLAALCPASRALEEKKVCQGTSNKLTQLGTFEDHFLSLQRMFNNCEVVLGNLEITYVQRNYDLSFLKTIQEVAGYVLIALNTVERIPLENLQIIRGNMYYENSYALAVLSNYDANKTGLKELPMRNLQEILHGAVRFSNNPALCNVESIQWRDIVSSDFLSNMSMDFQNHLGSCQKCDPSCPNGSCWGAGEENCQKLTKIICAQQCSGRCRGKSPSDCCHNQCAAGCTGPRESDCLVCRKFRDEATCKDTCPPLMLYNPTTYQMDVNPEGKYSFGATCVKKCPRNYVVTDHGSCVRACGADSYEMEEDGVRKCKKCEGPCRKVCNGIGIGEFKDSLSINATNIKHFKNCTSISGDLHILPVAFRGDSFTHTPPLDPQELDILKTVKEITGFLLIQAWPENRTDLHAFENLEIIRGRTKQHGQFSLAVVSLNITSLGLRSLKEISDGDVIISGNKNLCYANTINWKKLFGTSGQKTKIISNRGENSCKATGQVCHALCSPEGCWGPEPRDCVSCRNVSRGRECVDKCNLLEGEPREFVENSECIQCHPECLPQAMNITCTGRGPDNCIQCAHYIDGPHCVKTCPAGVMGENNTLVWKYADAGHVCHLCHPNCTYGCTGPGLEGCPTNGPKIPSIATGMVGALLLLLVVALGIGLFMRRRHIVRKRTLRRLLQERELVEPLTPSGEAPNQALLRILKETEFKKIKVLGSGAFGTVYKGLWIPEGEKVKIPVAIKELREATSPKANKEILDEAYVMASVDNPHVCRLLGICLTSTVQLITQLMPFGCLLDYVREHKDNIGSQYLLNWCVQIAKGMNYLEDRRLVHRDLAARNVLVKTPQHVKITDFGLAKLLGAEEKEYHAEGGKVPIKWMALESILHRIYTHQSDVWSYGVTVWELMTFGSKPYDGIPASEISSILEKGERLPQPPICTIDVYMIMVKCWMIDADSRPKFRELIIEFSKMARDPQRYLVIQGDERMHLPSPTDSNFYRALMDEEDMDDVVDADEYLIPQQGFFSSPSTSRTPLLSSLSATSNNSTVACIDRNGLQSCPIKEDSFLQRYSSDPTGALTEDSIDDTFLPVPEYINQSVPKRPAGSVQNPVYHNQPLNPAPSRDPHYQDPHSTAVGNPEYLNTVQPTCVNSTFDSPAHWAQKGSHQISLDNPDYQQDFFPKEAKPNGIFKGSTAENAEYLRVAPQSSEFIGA

SK-OV-3 = test: Growth inhibition of human SKOV3 cells assessed as cell growth at 10 uM incubated for 48 hrs by sulforhodamine B assay relative to control; format: functional; details: SK-OV-3, 48 h, read-out: Activity
SN12C = test: Growth inhibition of human SN12C cells assessed as cell growth at 10 uM incubated for 48 hrs by sulforhodamine B assay relative to control; format: functional; details: read-out: Activity
786-0 = test: Growth inhibition of human 786-0 cells assessed as cell growth at 10 uM incubated for 48 hrs by sulforhodamine B assay relative to control; format: functional; details: 786-0, 48 h, read-out: Activity
A498 = test: Growth inhibition of human A498 cells assessed as cell growth at 10 uM incubated for 48 hrs by sulforhodamine B assay relative to control; format: functional; details: A498, 48 h, read-out: Activity
HL-60(TB) = test: Growth inhibition of human HL-60(TB) cells assessed as cell growth at 10 uM incubated for 48 hrs by sulforhodamine B assay relative to control; format: functional; details: HL-60, 48 h, read-out: Activity
MOLT-4 = test: Growth inhibition of human MOLT4 cells assessed as cell growth at 10 uM incubated for 48 hrs by sulforhodamine B assay relative to control; format: functional; details: MOLT-4, 48 h, read-out: Activity
Hs-578T = test: Growth inhibition of human Hs 578T cells assessed as cell growth at 10 uM incubated for 48 hrs by sulforhodamine B assay relative to control; format: functional; details: read-out: Activity
NCI-H322M = test: Growth inhibition of human NCI-H322M cells assessed as cell growth at 10 uM incubated for 48 hrs by sulforhodamine B assay relative to control; format: functional; details: read-out: Activity
ACHN = test: Growth inhibition of human ACHN cells assessed as cell growth at 10 uM incubated for 48 hrs by sulforhodamine B assay relative to control; format: functional; details: read-out: Activity
UO-31 = test: Growth inhibition of human UO31 cells assessed as cell growth at 10 uM incubated for 48 hrs by sulforhodamine B assay relative to control; format: functional; details: UO-31, 48 h, read-out: Activity
M14 = test: Growth inhibition of human M14 cells assessed as cell growth at 10 uM incubated for 48 hrs by sulforhodamine B assay relative to control; format: functional; details: M14, 48 h, read-out: Activity
MDA-MB-231 = test: Growth inhibition of human MDA-MB-231 cells assessed as cell growth at 10 uM incubated for 48 hrs by sulforhodamine B assay relative to control; format: functional; details: MDA-MB-231, 48 h, read-out: Activity
SR = test: Growth inhibition of human SR cells assessed as cell growth at 10 uM incubated for 48 hrs by sulforhodamine B assay relative to control; format: functional; details: read-out: Activity
HCT-15 = test: Growth inhibition of human HCT15 cells assessed as cell growth at 10 uM incubated for 48 hrs by sulforhodamine B assay relative to control; format: functional; details: HCT-15, 48 h, read-out: Activity
CCRF-CEM = test: Growth inhibition of human CCRF-CEM cells assessed as cell growth at 10 uM incubated for 48 hrs by sulforhodamine B assay relative to control; format: functional; details: read-out: Activity
NCI-H460 = test: Growth inhibition of human NCI-H460 cells assessed as cell growth at 10 uM incubated for 48 hrs by sulforhodamine B assay relative to control; format: functional; details: NCI-H460, 48 h, read-out: Activity
SF-268 = test: Growth inhibition of human SF268 cells assessed as cell growth at 10 uM incubated for 48 hrs by sulforhodamine B assay relative to control; format: functional; details: SF-268, 48 h, read-out: Activity
NCI-H522 = test: Growth inhibition of human NCI-H522 cells assessed as cell growth at 10 uM incubated for 48 hrs by sulforhodamine B assay relative to control; format: functional; details: NCI-H522, 48 h, read-out: Activity
MCF7 = test: Growth inhibition of human MCF7 cells assessed as cell growth at 10 uM incubated for 48 hrs by sulforhodamine B assay relative to control; format: functional; details: MCF7, 48 h, read-out: Activity
EKVX = test: Growth inhibition of human EKVX cells assessed as cell growth at 10 uM incubated for 48 hrs by sulforhodamine B assay relative to control; format: functional; details: read-out: Activity
HCC 2998 = test: Growth inhibition of human HCC2998 cells assessed as cell growth at 10 uM incubated for 48 hrs by sulforhodamine B assay relative to control; format: functional; details: HCC 2998, 48 h, read-out: Activity
MDA-MB-468 = test: Growth inhibition of human MDA-MB-468 cells assessed as cell growth at 10 uM incubated for 48 hrs by sulforhodamine B assay relative to control; format: functional; details: MDA-MB-468, 48 h, read-out: Activity
OVCAR-5 = test: Growth inhibition of human OVCAR5 cells assessed as cell growth at 10 uM incubated for 48 hrs by sulforhodamine B assay relative to control; format: functional; details: OVCAR-5, 48 h, read-out: Activity
SF-539 = test: Growth inhibition of human SF539 cells assessed as cell growth at 10 uM incubated for 48 hrs by sulforhodamine B assay relative to control; format: functional; details: SF-539, 48 h, read-out: Activity
BT-549 = test: Growth inhibition of human BT549 cells assessed as cell growth at 10 uM incubated for 48 hrs by sulforhodamine B assay relative to control; format: functional; details: BT-549, 48 h, read-out: Activity
K562 = test: Growth inhibition of human K562 cells assessed as cell growth at 10 uM incubated for 48 hrs by sulforhodamine B assay relative to control; format: functional; details: K562, 48 h, read-out: Activity
NCI-H226 = test: Growth inhibition of human NCI-H226 cells assessed as cell growth at 10 uM incubated for 48 hrs by sulforhodamine B assay relative to control; format: functional; details: NCI-H226, 48 h, read-out: Activity
UACC-62 = test: Growth inhibition of human UACC62 cells assessed as cell growth at 10 uM incubated for 48 hrs by sulforhodamine B assay relative to control; format: functional; details: UACC-62, 48 h, read-out: Activity
NCI-H23 = test: Growth inhibition of human NCI-H23 cells assessed as cell growth at 10 uM incubated for 48 hrs by sulforhodamine B assay relative to control; format: functional; details: NCI-H23, 48 h, read-out: Activity

## CCOC(=O)c1c(C)oc2ncnc(Nc3ccc(OCc4ccc(Cl)cc4)cc3)c12
COLO 205
  growth at 10 µM: 111%
OVCAR-8
  growth at 10 µM: 107%
[1]
  inhibition: 6%
SK-OV-3
  growth at 10 µM: 88%
SN12C
  growth at 10 µM: 97.8%
786-0
  growth at 10 µM: 98%
A498
  growth at 10 µM: 91.7%
HL-60(TB)
  growth at 10 µM: 91.7%
MOLT-4
  growth at 10 µM: 109%
Hs-578T
  growth at 10 µM: 111%
NCI-H322M
  growth at 10 µM: 107%
ACHN
  growth at 10 µM: 101%
UO-31
  growth at 10 µM: 99.5%
M14
  growth at 10 µM: 102%
MDA-MB-231
  growth at 10 µM: 101%
SR
  growth at 10 µM: 92.1%
HCT-15
  growth at 10 µM: 108%
CCRF-CEM
  growth at 10 µM: 110%
NCI-H460
  growth at 10 µM: 107%
SF-268
  growth at 10 µM: 109%
NCI-H522
  growth at 10 µM: 84%
MCF7
  growth at 10 µM: 102%
EKVX
  growth at 10 µM: 102%
HCC 2998
  growth at 10 µM: 108%
MDA-MB-468
  growth at 10 µM: 89.8%
OVCAR-5
  growth at 10 µM: 100%
SF-539
  growth at 10 µM: 98.2%
BT-549
  growth at 10 µM: 96.1%
K562
  growth at 10 µM: 83.8%
NCI-H226
  growth at 10 µM: 98.8%
UACC-62
  growth at 10 µM: 87.7%
NCI-H23
  growth at 10 µM: 95.4%

## CCOC(=O)c1c(C)oc2ncnc(Nc3ccc(OCc4cccc(C)c4)cc3)c12
COLO 205
  growth at 10 µM: 100%
OVCAR-8
  growth at 10 µM: 106%
[1]
  inhibition: 6%
SK-OV-3
  growth at 10 µM: 96.7%
SN12C
  growth at 10 µM: 88.6%
786-0
  growth at 10 µM: 103%
A498
  growth at 10 µM: 84.4%
HL-60(TB)
  growth at 10 µM: 108%
MOLT-4
  growth at 10 µM: 115%
Hs-578T
  growth at 10 µM: 102%
NCI-H322M
  growth at 10 µM: 94%
ACHN
  growth at 10 µM: 98.1%
UO-31
  growth at 10 µM: 101%
M14
  growth at 10 µM: 86.5%
MDA-MB-231
  growth at 10 µM: 88.6%
SR
  growth at 10 µM: 116%
HCT-15
  growth at 10 µM: 99.5%
CCRF-CEM
  growth at 10 µM: 107%
NCI-H460
  growth at 10 µM: 95.5%
SF-268
  growth at 10 µM: 106%
NCI-H522
  growth at 10 µM: 81%
MCF7
  growth at 10 µM: 99.2%
EKVX
  growth at 10 µM: 94.5%
HCC 2998
  growth at 10 µM: 114%
MDA-MB-468
  growth at 10 µM: 106%
OVCAR-5
  growth at 10 µM: 107%
SF-539
  growth at 10 µM: 95.4%
BT-549
  growth at 10 µM: 106%
K562
  growth at 10 µM: 98%
NCI-H226
  growth at 10 µM: 101%
UACC-62
  growth at 10 µM: 80.7%
NCI-H23
  growth at 10 µM: 94.9%

## CCOC(=O)c1c(C)oc2ncnc(Nc3ccc(OCc4ccc(Cl)c(Cl)c4)cc3)c12
COLO 205
  growth at 10 µM: 111%
OVCAR-8
  growth at 10 µM: 113%
[1]
  inhibition: 0%
SK-OV-3
  growth at 10 µM: 98.9%
SN12C
  growth at 10 µM: 93.3%
786-0
  growth at 10 µM: 94.3%
A498
  growth at 10 µM: 92.3%
HL-60(TB)
  growth at 10 µM: 96.6%
MOLT-4
  growth at 10 µM: 105%
Hs-578T
  growth at 10 µM: 104%
NCI-H322M
  growth at 10 µM: 97.9%
ACHN
  growth at 10 µM: 102%
UO-31
  growth at 10 µM: 98.4%
M14
  growth at 10 µM: 101%
MDA-MB-231
  growth at 10 µM: 84.3%
SR
  growth at 10 µM: 90%
HCT-15
  growth at 10 µM: 104%
CCRF-CEM
  growth at 10 µM: 110%
NCI-H460
  growth at 10 µM: 102%
SF-268
  growth at 10 µM: 104%
NCI-H522
  growth at 10 µM: 91%
MCF7
  growth at 10 µM: 106%
EKVX
  growth at 10 µM: 102%
HCC 2998
  growth at 10 µM: 109%
MDA-MB-468
  growth at 10 µM: 96.5%
OVCAR-5
  growth at 10 µM: 95%
SF-539
  growth at 10 µM: 98.4%
BT-549
  growth at 10 µM: 94.9%
K562
  growth at 10 µM: 93.8%
NCI-H226
  growth at 10 µM: 94.4%
UACC-62
  growth at 10 µM: 93.2%
NCI-H23
  growth at 10 µM: 95.8%

## Cc1oc2ncnc(Nc3ccc(OCc4cccc(F)c4)c(Cl)c3)c2c1C(=O)NCCO
COLO 205
  growth at 10 µM: 85.7%
OVCAR-8
  growth at 10 µM: 42.8%
[1]
  inhibition: 32%
SK-OV-3
  growth at 10 µM: 74.2%
SN12C
  growth at 10 µM: 45.3%
786-0
  growth at 10 µM: 61.2%
A498
  growth at 10 µM: 81.6%
HL-60(TB)
  growth at 10 µM: 42.4%
MOLT-4
  growth at 10 µM: 68.5%
Hs-578T
  growth at 10 µM: 46.1%
NCI-H322M
  growth at 10 µM: 86.3%
ACHN
  growth at 10 µM: 49.7%
UO-31
  growth at 10 µM: 57.6%
M14
  growth at 10 µM: 66.9%
MDA-MB-231
  growth at 10 µM: 26%
SR
  growth at 10 µM: 99.7%
HCT-15
  growth at 10 µM: 61.1%
CCRF-CEM
  growth at 10 µM: 89.5%
NCI-H460
  growth at 10 µM: 34.7%
SF-268
  growth at 10 µM: 47.2%
NCI-H522
  growth at 10 µM: 27.9%
MCF7
  growth at 10 µM: 62.9%
EKVX
  growth at 10 µM: 47.8%
HCC 2998
  growth at 10 µM: 79.1%
MDA-MB-468
  growth at 10 µM: 57.4%
OVCAR-5
  growth at 10 µM: 96.9%
SF-539
  growth at 10 µM: 47.4%
BT-549
  growth at 10 µM: 61.7%
K562
  growth at 10 µM: 33.2%
NCI-H226
  growth at 10 µM: 40.8%
UACC-62
  growth at 10 µM: 55%
NCI-H23
  growth at 10 µM: 58.6%
